The term IC50 denotes the concentration that gives 50% inhibition. By CC50 is commonly meant the concentration at which the toxic effect on the cells reaches its halfway point.

These results are taken from article PMC9986876, “Prediction of Antileishmanial Compounds: General Model, Preparation, and Evaluation of 2-Acylpyrrole Derivatives” (Journal of Chemical Information and Modeling, 2022).

The test system of one series is L. major promastigotes. The conditions noted are these: in vitro; cited from earlier work.
Series [1] can be described thus: Cytotoxicity assay on macrophages (resazurin). It counts as cell-based, BALB/c mice. The conditions noted are these: mouse, J774 macrophages, macrophages J774, 24 h exposure, Table 2; values marked e correspond to 100 μg/mL, the higher dose tested. The procedure: The assay was carried out as previously described.[30] J774 macrophages cell lines were seeded (5 × 10^4 cells/well) in 96-well flat-bottom microplates with 100 μL of RPMI 1640 medium. The cells were allowed to attach for 24 h at 37 °C and 5% CO2, and the medium was replaced by different concentrations of the compounds in 200 μL of medium and exposed for another 24 h. Growth controls and signal-to-noise were also included. Afterward, a volume of 20 μL of 2.5 mM resazurin solution was added, and plates were returned to the incubator for another 3 h to evaluate cell viability. The reduction of resazurin was determined by fluorometry as in the promastigote assay. Each concentration was assayed three times.

Series [2] relates to L. amazonensis (MHOM/Br/79/Maria) promastigotes. Put plainly: In vitro promastigote susceptibility assay (resazurin). It counts as cell-based. Conditions: for SI (selectivity index, SI = CC50/IC50): CC50 J774 / IC50 L. amazonensis promastigotes; for IC50: Leishmania amazonensis; for IC50 / IC50 ± SD: L. amazonensis promastigotes, 48 h at 26 °C, triplicate, N/A = not active at 100 μg/mL. The procedure:
(§1) The following species of Leishmania were used: L. donovani (MHOM/IN/80/DD8) was purchased (ATCC, USA) and L. amazonensis (MHOM/Br/79/Maria) was kindly provided by Prof. Alfredo Toraño (Instituto de Salud Carlos III, Madrid). Promastigotes were cultured in Schneider’s insect medium supplemented with 10% heat-inactivated fetal bovine serum (FBS) and 1000 U/L of penicillin plus 100 mg/L of streptomycin in 25 mL culture flasks at 26 °C. […] New samples of the compounds have been prepared according to the protocol described above, and subsequently solutions of the chemical compound to be assayed have been dissolved in DMSO at 50 mg/mL. […] Growth control and signal-to-noise control were also included. The final solvent (DMSO) concentrations never exceeded 0.5% (v/v) warranting no effect on parasite proliferation or morphology. After 48 h at 26 °C, 20 μL of a 2.5 mM resazurin solution was added to each well and the plates were returned to the incubator for another 3 h. […] Growth inhibition (%) was calculated by 100 – [(RFU treated wells – RFU signal-to-noise)/(RFU untreated – RFU signal-to-noise) × 100]. All tests were carried out in triplicate. Miltefosine (Sigma-Merck, Madrid, Spain) was used as the reference drug and was evaluated under the same conditions. […] The selectivity index (SI) was calculated as the ratio between cytotoxicity (CC50) and activity against parasites (IC50).

In series [3] the test system is L. donovani (MHOM/IN/80/DD8) promastigotes. The series is described as above. It counts as cell-based. Conditions: for IC50: Leishmania donovani, L. donovani promastigotes, 48 h at 26 °C, triplicate, N/A = not active at 100 μg/mL; for SI (selectivity index, SI = CC50/IC50): CC50 J774 / IC50 L. donovani promastigotes. The procedure:
as §1

`Cc1ccc2ncc(/C=C/C(=O)c3cc[nH]c3)cc2c1` [4a]: the IC50 in the series on L. major promastigotes was 1.29 µM.
In the case of `COc1ccc2ncc(/C=C/C(=O)c3cc[nH]c3)cc2c1` [4b], the IC50 in the series on L. major promastigotes was 1.18 µM.
`O=C(c1ccccc1)c1cccn1-c1ncccn1` [5aa] returned a 50% cytotoxic concentration (CC50) at 24 h in series [1] above 401 µM. For the same molecule, in series [2], the “SI (selectivity index, SI = CC50/IC50)” value is above 1.55 and the half-inhibitory concentration (IC50) worked out at 260 ± 40.7 µM. The same molecule displayed an IC50 in series [3] above 100 µg/mL.
In series [1], `Cc1ccc(C(=O)c2cccn2-c2ncccn2)cc1` [5ab] had a CC50 at 24 h above 381 µM. Further, the IC50 in series [2] and in series [3] was above 100 µg/mL throughout.
The molecule `CC(C)(C)c1ccc(C(=O)c2cccn2-c2ncccn2)cc1` [5ac] registered a CC50 at 24 h in series [1] of 91 ± 6.55 µM. In series [2], the “SI (selectivity index, SI = CC50/IC50)” value was above 2.77 and the IC50 is 32.9 ± 0.74 µM. For the same molecule, in series [3], the “SI (selectivity index, SI = CC50/IC50)” value is recorded as above 1.55 and 58.5 ± 7.04 µM corresponded to half-maximal inhibition (IC50).
Molecule `O=C(c1ccc(F)cc1)c1cccn1-c1ncccn1` [5ad] gave a CC50 at 24 h in series [1] of 270 ± 26.3 µM. In series [2], the “IC50 ± SD” value was “inactive” and the IC50 is above 100 µg/mL. Besides, in series [3], the IC50 was above 100 µg/mL.
In series [1], `O=C(c1ccc(Cl)cc1)c1cccn1-c1ncccn1` [5ae] had a CC50 at 24 h above 352 µM. Moreover, in series [2], the “SI (selectivity index, SI = CC50/IC50)” value is reported as above 3.01 and the IC50 came out at 117 ± 10.9 µM. In addition, in series [3], the “SI (selectivity index, SI = CC50/IC50)” value is recorded as above 1.86 and the midpoint of inhibition, the IC50, lay at 190 ± 6.76 µM.
For `N#Cc1ccc(C(=O)c2cccn2-c2ncccn2)cc1` [5ag], the CC50 at 24 h in series [1] was above 365 µM. The IC50 in series [2] and in series [3] was above 100 µg/mL in each case.
As for `O=C(c1ccc([N+](=O)[O-])cc1)c1cccn1-c1ncccn1` [5ah], the 50% cytotoxic concentration (CC50) at 24 h in series [1] was above 340 µM. For the same molecule, the IC50 in series [2] and in series [3] was above 100 µg/mL throughout.
On to `O=C(c1ccc(C(F)(F)F)cc1)c1cccn1-c1ncccn1` [5ai], for which the cytotoxic concentration (CC50) at 24 h in series [1] is 150 ± 49.4 µM. In series [2], the “SI (selectivity index, SI = CC50/IC50)” value was above 3.13 and the half-inhibitory concentration (IC50) came out at 48 ± 1.61 µM. Besides, in series [3], the “SI (selectivity index, SI = CC50/IC50)” value was above 3.51 and 42.8 ± 0.61 µM corresponded to half-maximal inhibition (IC50).
For `COc1cc(OC)cc(C(=O)c2cccn2-c2ncccn2)c1` [5aj] the same measures were 88.3 ± 3.36 µM, above 2.71, 32.5 ± 0.64 µM, above 0.42 and 211 ± 32.8 µM.
`COc1cc(C(=O)c2cccn2-c2ncccn2)cc(OC)c1OC` [5ak]: half-maximal cytotoxicity in series [1] (CC50 at 24 h) was put at 87.3 ± 7.37 µM. Moreover, in series [2], the “IC50 ± SD” value is “inactive” and the 50% inhibitory concentration (IC50) was above 100 µg/mL. This molecule also had a half-maximal inhibitory concentration (IC50) in series [3] above 100 µg/mL.
As for `COc1ccc(C(=O)c2cccn2-c2ncccn2)c(OC)c1` [5al], in series [1], the midpoint of cytotoxicity, the CC50 at 24 h, lay at 224 ± 46.9 µM. In addition, the IC50 in series [2] and in series [3] was above 100 µg/mL throughout.
`O=C(c1cc(C(F)(F)F)cc(C(F)(F)F)c1)c1cccn1-c1ncccn1` [5am] yielded a half-maximal cytotoxic concentration (CC50) at 24 h in series [1] above 260 µM. In series [2], the “SI (selectivity index, SI = CC50/IC50)” value was above 4.53 and the 50% inhibitory concentration (IC50) came to 57.34 ± 0.25 µM. Besides, in series [3], the “SI (selectivity index, SI = CC50/IC50)” value is above 1.31 and the IC50 was 199 ± 25.4 µM.
Turning to `O=C(c1ccc2ccccc2c1)c1cccn1-c1ncccn1` [5an], in series [1], the CC50 at 24 h amounted to 113 ± 39.2 µM. Besides, in series [2], the “SI (selectivity index, SI = CC50/IC50)” value is recorded as above 3.12 and the 50% inhibitory concentration (IC50) was found to be 36.1 ± 1.23 µM. Moreover, in series [3], the “SI (selectivity index, SI = CC50/IC50)” value was above 1.93 and the IC50 came to 58.5 ± 3.34 µM.
In series [1], `Cc1cccnc1-n1cccc1C(=O)c1ccccc1` [5ba] returned a CC50 at 24 h above 381 µM. In series [2], the “SI (selectivity index, SI = CC50/IC50)” value is given as above 2.50 and the IC50 is 153 ± 21.6 µM. Moreover, in series [3], the 50% inhibitory concentration (IC50) was above 100 µg/mL.
In series [1], `Cc1ccc(C(=O)c2cccn2-c2ncccc2C)cc1` [5bb] came in with a CC50 at 24 h above 362 µM. Moreover, in series [2], the “SI (selectivity index, SI = CC50/IC50)” value is listed as above 2.43 and half-maximal inhibition (IC50) required 149 ± 3.84 µM. Besides, in series [3], the “SI (selectivity index, SI = CC50/IC50)” value was above 3.02 and the concentration for half-maximal inhibition (IC50) came to 120 ± 15 µM.
In series [1], `Cc1cccnc1-n1cccc1C(=O)c1ccc(F)cc1` [5bd] showed a CC50 at 24 h of 137 ± 36.4 µM. The concentration for half-maximal inhibition (IC50) in series [2] is 16.9 ± 0.73 µM; in series [3] it was 7.78 ± 0.27 µM. In addition, in series [3], the “SI (selectivity index, SI = CC50/IC50)” value is given as above 23.15.
`Cc1cccnc1-n1cccc1C(=O)c1ccc(Cl)cc1` [5be] had a CC50 at 24 h in series [1] of 149 ± 19.3 µM. For the same molecule, in series [2], the “SI (selectivity index, SI = CC50/IC50)” value is reported as above 2.89 and the IC50 stood at 51.5 ± 4.72 µM. Moreover, in series [3], the “SI (selectivity index, SI = CC50/IC50)” value is above 7.19 and the IC50 was determined as 20.7 ± 0.98 µM.
In the same order, the values of `Cc1cccnc1-n1cccc1C(=O)c1ccc(Br)cc1` [5bf] are 120 ± 37.4 µM, above 3.14, 38.1 ± 0.85 µM, above 6.01 and 19.9 ± 1.47 µM.
Take `Cc1cccnc1-n1cccc1C(=O)c1ccc(C#N)cc1` [5bg]: the CC50 at 24 h in series [1] was above 348 µM. In series [2], the “SI (selectivity index, SI = CC50/IC50)” value is above 1.81 and the IC50 amounted to 192 ± 12 µM. Also, in series [3], the “SI (selectivity index, SI = CC50/IC50)” value is reported as above 1.10 and inhibition was half-maximal at 315 ± 60.8 µM (IC50).
For `COc1cc(OC)cc(C(=O)c2cccn2-c2ncccc2C)c1` [5bj], the CC50 at 24 h in series [1] was 108 ± 5.76 µM. Besides, in series [2], the “SI (selectivity index, SI = CC50/IC50)” value is listed as above 1.53. Besides, the IC50 in series [2] came to 71.1 ± 7.81 µM; in series [3], 43.5 ± 0.59 µM.
For the molecule `COc1cc(C(=O)c2cccn2-c2ncccc2C)cc(OC)c1OC` [5bk], it took 284 µM to reach half-maximal cytotoxicity in series [1] (CC50 at 24 h). In series [2], the “IC50 ± SD” value is “inactive” and the half-maximal inhibitory concentration (IC50) was above 100 µg/mL. The IC50 in series [3] is above 100 µg/mL.
With `COc1ccc(C(=O)c2cccn2-c2ncccc2C)cc1` [5bo], the CC50 at 24 h in series [1] was above 342 µM. The “SI (selectivity index, SI = CC50/IC50)” value in series [2] is above 1.53; in series [3], above 1.98. Moreover, the IC50 in series [2] came out at 224 ± 14.7 µM; in series [3], 173 ± 60.3 µM.
For `Cc1cccnc1-n1cccc1C(=O)c1cccc(OCc2ccccc2)c1` [5bp] the same measures were above 357 µM, above 1.31, above 1.47, 208 ± 23.6 µM and 184 ± 8.67 µM.
For the molecule `Cc1cccnc1-n1cccc1C(=O)c1ccn(C(C)(C)C)c1` [5bq], in series [1], the cytotoxic concentration (CC50) at 24 h is above 325 µM. Moreover, in series [2], the “SI (selectivity index, SI = CC50/IC50)” value is above 1.56 and the 50% inhibitory concentration (IC50) amounted to 209 ± 4.69 µM. The molecule also showed an IC50 in series [3] of 92.8 ± 7.68 µM.
Molecule `Cc1cccnc1-n1cccc1C(=O)c1ccn(C)c1` [5br] gave a CC50 at 24 h in series [1] above 377 µM. Besides, the “SI (selectivity index, SI = CC50/IC50)” value in series [2] is above 1.66. Moreover, the IC50 is 227 ± 13.4 µM in series [2] and above 100 µg/mL in series [3].
`Cc1cccnc1-n1cccc1C(=O)c1ccoc1` [5bs]: the CC50 at 24 h in series [1] is above 396 µM. Moreover, the IC50 in series [2] and in series [3] was above 100 µg/mL throughout.
Consider `CN1CCC(c2cc(-c3ccncc3)c(-c3ccc(F)cc3)[nH]2)CC1` [compound 1], for which the IC50 in the series on L. major promastigotes was 2.1 µM.
As for `CN1CCC(c2cc(-c3ccc(F)cc3)c(-c3ccncc3)[nH]2)CC1` [compound 2], in the series on L. major promastigotes, the IC50 was 0.6 µM.
